Measurements: patent US8952024B2, “Herbicidal pyrimidone derivatives” (E I du Pont de Nemours and Company, priority 2009, dated 2015)
Read-outs that look alike come from different tables or passages of the source.

Columns and labels:
Type in all cases: in vivo
[1] = tested on: barnyardgrass (Echinochloa crus-galli); test: Test A pre-/postemergence plant response; settings: Echinochloa crus-galli, 240 h; for pest or weed control at 125 g/ha: 125 g ai/ha; for pest or weed control at 500 g/ha: 500 g ai/ha
Outline: (§1)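 Greenhouse pots of loam/sand received directed preemergence soil sprays or postemergence sprays (plants 2–10 cm, 1–2 leaf stage), compounds formulated in non-phytotoxic solvent with surfactant. Injury was rated visually versus untreated controls after about ten days on a 0 (no effect) to 100 (complete control) scale.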

corn (Zea mays) = test: Test A pre-/postemergence plant response; settings: Zea mays, 240 h; for Corn plant response rating (crop injury, 0 = no effect, 100 = complete kill) at 500 g/ha: 500 g ai/ha
Outline: as §1

[2] = tested on: giant foxtail (Setaria faberii); test: Test A pre-/postemergence plant response; settings: Setaria faberi, 240 h; for pest or weed control at 125 g/ha: 125 g ai/ha; for pest or weed control at 500 g/ha: 500 g ai/ha
Outline: as §1

[3] = tested on: large crabgrass (Digitaria sanguinalis); test: Test A pre-/postemergence plant response; settings: Digitaria sanguinalis, 240 h; for pest or weed control at 125 g/ha: 125 g ai/ha; for pest or weed control at 500 g/ha: 500 g ai/ha
Outline: as §1

[4] = tested on: morningglory (Ipomoea spp.); test: Test A pre-/postemergence plant response; settings: Ipomoea, 240 h; for pest or weed control at 125 g/ha: 125 g ai/ha; for pest or weed control at 500 g/ha: 500 g ai/ha
Outline: as §1

[5] = tested on: pigweed (Amaranthus retroflexus); test: Test A pre-/postemergence plant response; settings: Amaranthus retroflexus, 240 h; for pest or weed control at 125 g/ha: 125 g ai/ha; for pest or weed control at 500 g/ha: 500 g ai/ha
Outline: as §1

[6] = tested on: velvetleaf (Abutilon theophrasti); test: Test A pre-/postemergence plant response; settings: Abutilon theophrasti, 240 h; for pest or weed control at 125 g/ha: 125 g ai/ha; for pest or weed control at 500 g/ha: 500 g ai/ha
Outline: as §1

[7] = tested on: wheat (Triticum aestivum); test: Test A pre-/postemergence plant response; settings: Triticum aestivum, 240 h; for plant injury at 125 g/ha: 125 g ai/ha; for plant injury at 500 g/ha: 500 g ai/ha
Outline: as §1

[8] = tested on: barnyardgrass (Echinochloa crus-galli); test: Test B flooded paddy test; settings: Echinochloa crus-galli, 360 h
Outline: (§2)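 Seedlings reaching 2 leaves are flooded 3 cm deep; test material is delivered to that water, which stays at the same depth. Plants remain in a greenhouse 13–15 days and are then scored by eye versus controls from 0 to 100.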

[9] = tested on: ducksalad (Heteranthera limosa); test: Test B flooded paddy test; settings: Heteranthera limosa, 360 h
Outline: as §2

rice (Oryza sativa) = test: Test B flooded paddy test; settings: Oryza sativa
Outline: as §2

[10] = tested on: umbrella sedge (Cyperus difformis); test: Test B flooded paddy test; settings: Cyperus difformis, 360 h
Outline: as §2

Which results are given for `O=C1CCCC(O)=C1C(=O)c1cnc(-c2ccccc2)n(Cc2ccccc2)c1=O` [Compound 17, 5-[(2-hydroxy-6-oxo-1-cyclohexen-1-yl)carbonyl]-2-phenyl-3-(phenylmethyl)-4(3H)-pyrimidinone]?
pest or weed control at 125 g/ha ([1]; post-emergence, Postemergence, visual injury, 0 to 100 scale (0 no effect, 100 complete control), approx. ten days, read-out: Barnyardgrass plant response rating): 10%; pest or weed control at 500 g/ha ([1]; post-emergence, Postemergence, 0 to 100 scale, 0 = no effect, 100 = complete control, approx. ten days, read-out: Plant response rating, Barnyardgrass): 70%; pest or weed control at 125 g/ha ([1]; pre-emergence, Preemergence, 0 to 100 scale, 0 = no effect, 100 = complete control, read-out: Plant response rating, Barnyardgrass): 0%; pest or weed control at 500 g/ha ([1]; pre-emergence, Preemergence, visual injury, 0 to 100 scale (0 no effect, 100 complete control), approx. ten days, read-out: Plant response rating, Barnyardgrass): 80%; plant injury at 125 g/ha (corn (Zea mays); post-emergence, Postemergence, 125 g ai/ha, visual injury, 0 to 100 scale (0 no effect, 100 complete control), approx. ten days, read-out: Corn plant response rating): 0%; Corn plant response rating (crop injury, 0 = no effect, 100 = complete kill) at 500 g/ha (corn (Zea mays); post-emergence, Postemergence, 0 to 100 scale, 0 = no effect, 100 = complete control, approx. ten days): 10%; Corn plant response rating (crop injury, 0 = no effect, 100 = complete kill) at 125 g/ha (corn (Zea mays); pre-emergence, Preemergence, 125 g ai/ha, 0 to 100 scale, 0 = no effect, 100 = complete control): 0%; Corn plant response rating (crop injury, 0 = no effect, 100 = complete kill) at 500 g/ha (corn (Zea mays); pre-emergence, Preemergence, visual injury, 0 to 100 scale (0 no effect, 100 complete control), approx. ten days): 0%; pest or weed control at 125 g/ha ([2]; post-emergence, Postemergence, visual injury, 0 to 100 scale (0 no effect, 100 complete control), approx. ten days, read-out: Foxtail, Giant plant response rating): 0%; pest or weed control at 500 g/ha ([2]; post-emergence, Postemergence, 0 to 100 scale, 0 = no effect, 100 = complete control, approx. ten days, read-out: Plant response rating, Foxtail, Giant): 30%; pest or weed control at 125 g/ha ([2]; pre-emergence, Preemergence, 0 to 100 scale, 0 = no effect, 100 = complete control, read-out: Plant response rating, Foxtail, Giant): 0%; pest or weed control at 500 g/ha ([2]; pre-emergence, Preemergence, visual injury, 0 to 100 scale (0 no effect, 100 complete control), approx. ten days, read-out: Plant response rating, Foxtail, Giant): 20%; pest or weed control at 125 g/ha ([3]; post-emergence, Postemergence, visual injury, 0 to 100 scale (0 no effect, 100 complete control), approx. ten days, read-out: Crabgrass, Large plant response rating): 10%; pest or weed control at 500 g/ha ([3]; post-emergence, Postemergence, 0 to 100 scale, 0 = no effect, 100 = complete control, approx. ten days, read-out: Plant response rating, Crabgrass, Large): 70%; pest or weed control at 125 g/ha ([3]; pre-emergence, Preemergence, 0 to 100 scale, 0 = no effect, 100 = complete control, read-out: Plant response rating, Crabgrass, Large): 20%; pest or weed control at 500 g/ha ([3]; pre-emergence, Preemergence, visual injury, 0 to 100 scale (0 no effect, 100 complete control), approx. ten days, read-out: Plant response rating, Crabgrass, Large): 100%; pest or weed control at 125 g/ha ([4]; post-emergence, Postemergence, visual injury, 0 to 100 scale (0 no effect, 100 complete control), approx. ten days, read-out: Morningglory plant response rating): 20%; pest or weed control at 500 g/ha ([4]; post-emergence, Postemergence, 0 to 100 scale, 0 = no effect, 100 = complete control, approx. ten days, read-out: Plant response rating, Morningglory): 70%; pest or weed control at 125 g/ha ([4]; pre-emergence, Preemergence, 0 to 100 scale, 0 = no effect, 100 = complete control, read-out: Plant response rating, Morningglory): 0%; pest or weed control at 500 g/ha ([4]; pre-emergence, Preemergence, visual injury, 0 to 100 scale (0 no effect, 100 complete control), approx. ten days, read-out: Plant response rating, Morningglory): 10%; pest or weed control at 125 g/ha ([5]; post-emergence, Postemergence, visual injury, 0 to 100 scale (0 no effect, 100 complete control), approx. ten days, read-out: Pigweed plant response rating): 80%; pest or weed control at 500 g/ha ([5]; post-emergence, Postemergence, 0 to 100 scale, 0 = no effect, 100 = complete control, approx. ten days, read-out: Plant response rating, Pigweed): 100%; pest or weed control at 125 g/ha ([5]; pre-emergence, Preemergence, 0 to 100 scale, 0 = no effect, 100 = complete control, read-out: Plant response rating, Pigweed): 80%; pest or weed control at 500 g/ha ([5]; pre-emergence, Preemergence, visual injury, 0 to 100 scale (0 no effect, 100 complete control), approx. ten days, read-out: Plant response rating, Pigweed): 90%; pest or weed control at 125 g/ha ([6]; post-emergence, Postemergence, visual injury, 0 to 100 scale (0 no effect, 100 complete control), approx. ten days, read-out: Velvetleaf plant response rating): 100%; pest or weed control at 500 g/ha ([6]; post-emergence, Postemergence, 0 to 100 scale, 0 = no effect, 100 = complete control, approx. ten days, read-out: Plant response rating, Velvetleaf): 100%; pest or weed control at 125 g/ha ([6]; pre-emergence, Preemergence, 0 to 100 scale, 0 = no effect, 100 = complete control, read-out: Plant response rating, Velvetleaf): 40%; pest or weed control at 500 g/ha ([6]; pre-emergence, Preemergence, visual injury, 0 to 100 scale (0 no effect, 100 complete control), approx. ten days, read-out: Plant response rating, Velvetleaf): 100%; plant injury at 125 g/ha ([7]; post-emergence, Postemergence, visual injury, 0 to 100 scale (0 no effect, 100 complete control), approx. ten days, read-out: Wheat plant response rating): 0%; plant injury at 500 g/ha ([7]; post-emergence, Postemergence, 0 to 100 scale, 0 = no effect, 100 = complete control, approx. ten days, read-out: Plant response rating, Wheat): 10%; plant injury at 125 g/ha ([7]; pre-emergence, Preemergence, 0 to 100 scale, 0 = no effect, 100 = complete control, read-out: Plant response rating, Wheat): 0%; plant injury at 500 g/ha ([7]; pre-emergence, Preemergence, visual injury, 0 to 100 scale (0 no effect, 100 complete control), approx. ten days, read-out: Plant response rating, Wheat): 0%; pest or weed control at 250 g/ha ([8]; 250 g ai/ha, flooded paddy test, visual rating on 0 to 100 scale (0 no effect, 100 complete control) after 13 to 15 days, read-out: Plant response rating, Flood, Barnyardgrass): 25%; pest or weed control at 31 g/ha ([8]; Flood (flooded paddy test), 31 g ai/ha, scale of 0 to 100 where 0 is no effect and 100 is complete control, 13 to 15 days, read-out: Plant response rating, Barnyardgrass): 0%; pest or weed control at 62 g/ha ([8]; Flood (flooded paddy test), 62 g ai/ha, scale 0 to 100, 0 is no effect, 100 is complete control, 13 to 15 days, read-out: Plant response rating, Barnyardgrass): 20%; pest or weed control at 125 g/ha ([8]; Flood (flooded paddy test), 125 g ai/ha, scale 0 to 100, 0 is no effect, 100 is complete control, 13 to 15 days, read-out: Plant response rating, Barnyardgrass): 25%; pest or weed control at 250 g/ha ([9]; 250 g ai/ha, flooded paddy test, visual rating on 0 to 100 scale (0 no effect, 100 complete control) after 13 to 15 days, read-out: Plant response rating, Flood, Ducksalad): 45%; pest or weed control at 31 g/ha ([9]; Flood (flooded paddy test), 31 g ai/ha, scale of 0 to 100 where 0 is no effect and 100 is complete control, 13 to 15 days, read-out: Plant response rating, Ducksalad): 0%; pest or weed control at 62 g/ha ([9]; Flood (flooded paddy test), 62 g ai/ha, scale 0 to 100, 0 is no effect, 100 is complete control, 13 to 15 days, read-out: Plant response rating, Ducksalad): 30%; pest or weed control at 125 g/ha ([9]; Flood (flooded paddy test), 125 g ai/ha, scale 0 to 100, 0 is no effect, 100 is complete control, 13 to 15 days, read-out: Plant response rating, Ducksalad): 30%; plant injury at 250 g/ha (rice (Oryza sativa); 250 g ai/ha, flooded paddy test, visual rating on 0 to 100 scale (0 no effect, 100 complete control) after 13 to 15 days, read-out: Plant response rating, Flood, Rice): 15%; plant injury at 31 g/ha (rice (Oryza sativa); Flood (flooded paddy test), 31 g ai/ha, scale of 0 to 100 where 0 is no effect and 100 is complete control, 13 to 15 days, read-out: Plant response rating, Rice): 0%; plant injury at 62 g/ha (rice (Oryza sativa); Flood (flooded paddy test), 62 g ai/ha, scale 0 to 100, 0 is no effect, 100 is complete control, 13 to 15 days, read-out: Plant response rating, Rice): 0%; plant injury at 125 g/ha (rice (Oryza sativa); Flood (flooded paddy test), 125 g ai/ha, scale 0 to 100, 0 is no effect, 100 is complete control, 13 to 15 days, read-out: Plant response rating, Rice): 0%; pest or weed control at 250 g/ha ([10]; 250 g ai/ha, flooded paddy test, visual rating on 0 to 100 scale (0 no effect, 100 complete control) after 13 to 15 days, read-out: Plant response rating, Flood, Sedge, Umbrella): 80%; pest or weed control at 31 g/ha ([10]; Flood (flooded paddy test), 31 g ai/ha, scale of 0 to 100 where 0 is no effect and 100 is complete control, 13 to 15 days, read-out: Plant response rating, Sedge, Umbrella): 0%; pest or weed control at 62 g/ha ([10]; Flood (flooded paddy test), 62 g ai/ha, scale 0 to 100, 0 is no effect, 100 is complete control, 13 to 15 days, read-out: Plant response rating, Sedge, Umbrella): 70%; pest or weed control at 125 g/ha ([10]; Flood (flooded paddy test), 125 g ai/ha, scale 0 to 100, 0 is no effect, 100 is complete control, 13 to 15 days, read-out: Plant response rating, Sedge, Umbrella): 70%
